Assay results as given in patent EP4810493A1, “HETEROCYCLIC CARBONYL DERIVATIVE MODULATOR, PREPARATION METHOD THEREFOR, AND USE THEREOF” (Shanghai Hansoh Biomedical Co., Ltd., priority 2023, dated 2025).
Where two headings read alike, the source gives them in different places.

Tests used:
[1] = six weeks of dosing, cited from earlier work
[2] = Pharmacokinetic determination in SD rats; details: rat, in vivo, po, male SD rats, p.o. 5 mg/kg; for MRT inf: read-out: MRT 0-∞
Description: To investigate the pharmacokinetic behaviours of the example compounds in both plasma and brain of SD rats (test animals) following oral administration at a dose of 5 mg/kg.
(§1) 2.1 Test drugs: The example compounds of the present invention, made in house.
2.2 Test animals: SD Rat, male.
24 SD Rats, male; p.o. respectively at a dose of 5 mg/kg and an administration volume of 10 mL/kg after the rats were fasted overnight.
(§2) Formulation of a drug for oral administration: 0.5% CMC-Na (1% Tween 80).
(§3) 0.50 g of sodium carboxymethyl cellulose (CMC-Na, viscosity: 800-1200 Cps) was weighed and dissolved in 99 mL of purified water, and 1 ml of Tween 80 was added. The components were mixed thoroughly under stirring to form a clear solution.
The example compound was weighed into a 100 mL glass vial, 80 mL of the solution was added, and the mixture was subjected to ultrasound treatment for 10 minutes to obtain a homogeneous suspension with a concentration of 0.5 mg/mL.
(§4) After the test animals were euthanised by CO2, blood samples were collected from the heart and brain tissues were harvested at 0.25 h, 0.5 h, 1 h, 2 h, 4 h, 6 h, 8 h, and 24 h post-dose. Blood was placed in EDTA-2K tubes, and centrifuged at 6000 rpm for 6 min at 4°C to separate the plasma. Brain tissues were rinsed with pre-cold PBS, blotted dry, and weighed. Both plasma and brain samples were stored at -80°C. The animals were fed 4 h after administration.
(§5) • 3) 40 uL of plasma sample was precipitated with 160 uL of acetonitrile, mixed, and centrifuged at 3500 × g for 5-20 min. Brain tissues were diluted, homogenised and centrifuged. • 4) 100 uL of the treated supernatant solution was taken for LC/MS/MS analysis to determine the concentration of the test compounds.
(§6) • Liquid phase conditions: Shimadzu LC-20AD pump • Mass spectrometry conditions: AB Sciex API 4000 mass spectrometer • Chromatographic column: Phenomenex Gemiu 5 um C18 50 × 4.6 mm • Mobile phase: solution A: 0.1% formic acid in water, solution B: acetonitrile • Flow rate: 0.8 mL/min • Elution time: 0-4.0 min, with eluents as follows:
(§7) The main pharmacokinetic parameters were calculated using WinNonlin 8.1.

[3] = Pharmacokinetic determination in Balb/c mice; details: mouse, in vivo, po, male Balb/c mice, p.o. 5 mg/kg; for MRT inf: read-out: MRT 0-∞
Description: To investigate the pharmacokinetic behaviours of the example compounds in both plasma and brain of Balb/c mice (test animals) following oral administration at a dose of 5 mg/kg.
as §1
2.2 Test animals: Balb/c Mouse, male.
24 Balb/c mice, male; p.o. respectively at a dose of 5 mg/kg and an administration volume of 10 mL/kg after the mice were fasted overnight.
as §2, §3
The example compound was weighed into a 4-mL glass vial, 2.4 mL of the solution was added, and the mixture was subjected to ultrasound treatment for 10 minutes to obtain a homogeneous suspension with a concentration of 0.5 mg/mL.
as §4
as §5, with “1)” for “3)”, “2)” for “4)”
as §6, §7

M4 receptor = biological target: T1, M4 receptor (Homo sapiens, UniProt P08173); test: Calcium flux (FLIPR) potentiation assay in cells stably expressing M4 receptor; assay type: cell-based
T1 construct: expressed in transfected cells
T1 sequence (P08173 1-479): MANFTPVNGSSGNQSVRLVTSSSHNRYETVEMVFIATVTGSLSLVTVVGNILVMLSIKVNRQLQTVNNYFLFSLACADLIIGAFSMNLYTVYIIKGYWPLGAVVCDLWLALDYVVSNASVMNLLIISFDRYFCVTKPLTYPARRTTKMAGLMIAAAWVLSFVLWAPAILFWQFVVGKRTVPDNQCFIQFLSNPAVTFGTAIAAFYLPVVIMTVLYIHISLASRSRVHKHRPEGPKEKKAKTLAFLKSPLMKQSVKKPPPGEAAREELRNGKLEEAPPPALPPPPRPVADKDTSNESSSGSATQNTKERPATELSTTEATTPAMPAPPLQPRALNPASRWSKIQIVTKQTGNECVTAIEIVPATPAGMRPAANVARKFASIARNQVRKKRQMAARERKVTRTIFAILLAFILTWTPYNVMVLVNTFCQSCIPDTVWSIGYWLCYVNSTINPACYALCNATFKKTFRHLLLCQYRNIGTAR
Outline: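 CHO-K1 cells co-expressing Gα15, loaded with Calcium 6 dye 1 h at room temperature, preincubated 2 min with compound ([…]), then challenged with acetylcholine at EC20. Peak fluorescence expressed as % activation between DMSO and ACh EC100 controls.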

[4] = in vivo; cited from earlier work
[5] = CHO-K1/M4/Gα15 cells, potentiation of acetylcholine (EC20) calcium flux, read-out: M4 FLIPR EC50

## Cc1cc(C)c2c(n1)CN(C(=O)CC1CN(c3ccnc(C(F)(F)F)c3)C1)C2 [CVL-231]
[1]; 20 mg twice daily
  mean reduction in the Positive and Negative Syndrome Scale (PANSS) total score from baseline: 17.9 points
[1]; 30 mg once daily
  mean reduction in the Positive and Negative Syndrome Scale (PANSS) total score from baseline: 19.5 points

## Cc1c2c(c3ncnn3c1C)CN(C(=O)OC1CN(c3ccnc(C(F)(F)F)c3)C1)C2 [Example 32, 1-(2-(Trifluoromethyl)pyridin-4-yl)azetidin-3-yl 5,6-dimethyl-7,9-dihydro-8H-pyrrolo[3,4-c][1,2,4]triazolo[1,5-a]pyridine-8-carboxylate]
[2]
  AUC(0-inf): 17.5 µg·h/mL
  Cmax: 4.52 µg/mL
  Tmax: 2 h
  MRT inf: 2.7 h
[3]
  AUC(0-inf): 7.37 µg·h/mL
  Cmax: 2.56 µg/mL
  Tmax: 0.5 h
  MRT inf: 2.5 h
M4 receptor; [5]
  EC50: 0.0724 µM

## Cc1c2c(c3ncnn3c1C)CN(C(=O)CC1CN(c3ccnc(OC(F)F)c3)C1)C2 [Example 52]
[2]
  AUC(0-inf): 10.8 µg·h/mL
  Cmax: 2.45 µg/mL
  Tmax: 2 h
  MRT inf: 2.6 h
[3]
  AUC(0-inf): 2.54 µg·h/mL
  Cmax: 1.95 µg/mL
  Tmax: 0.25 h
  MRT inf: 1.2 h
M4 receptor; [5]
  EC50: 0.0139 µM

## Cc1cn2nc(N3CC(OC(=O)N4Cc5c(C)c(C)n6ncnc6c5C4)C3)ccc2n1 [Example 105]
[2]
  AUC(0-inf): 16.3 µg·h/mL
  Cmax: 2.68 µg/mL
  Tmax: 1 h
  MRT inf: 4.3 h
[3]
  AUC(0-inf): 10.2 µg·h/mL
  Cmax: 1.57 µg/mL
  Tmax: 0.5 h
  MRT inf: 4.3 h
M4 receptor
  EC50: 0.0199 µM

## Cc1c2c(c3ncnn3c1C)CN(C(=O)OC1CN(c3ccnc(OC(F)F)c3)C1)C2 [Example 123]
[2]
  AUC(0-inf): 12.2 µg·h/mL
  Cmax: 2.53 µg/mL
  Tmax: 2 h
  MRT inf: 3.5 h
[3]
  AUC(0-inf): 4.16 µg·h/mL
  Cmax: 1.04 µg/mL
  Tmax: 0.5 h
  MRT inf: 3.8 h

## Cc1c2c(c3ncnn3c1C)CN(C(=O)CC1CN(c3ncc(C(F)(F)F)cn3)C1)C2 [Example 144, 1-(5,6-Dimethyl-7,9-dihydro-8H-pyrrolo[3,4-c][1,2,4]triazolo[1,5-a]pyridin-8-yl)-2-(1-(5-(trifluoromethyl)pyrimidin-2-yl)azetidin-3-yl)ethan-1-one]
[2]
  AUC(0-inf): 11 µg·h/mL
  Cmax: 1.71 µg/mL
  Tmax: 2 h
  MRT inf: 4.6 h
[3]
  AUC(0-inf): 4.79 µg·h/mL
  Cmax: 1.89 µg/mL
  Tmax: 0.5 h
  MRT inf: 1.4 h
M4 receptor; [5]
  EC50: 0.0858 µM

## Cc1nnc2sc(C(=O)NCc3ccc(S(=O)(=O)C(F)(F)F)cc3)c(N)c2c1C [VU0467154]
[4]
  learning deficits induced by the NMDA receptor antagonist MK-801: improved learning deficits
